Measured values published in ChEMBL document CHEMBL5579894, “Antimicrobial Dihydroflavonols and Isoflavans Isolated from the Root Bark of Dalbergia gloveri” (2024).
Values after ≈ are worked out from the molar mass of the structure shown.

Legend:
Format in all cases: functional
Staphylococcus aureus = experiment: Antibacterial activity against Staphylococcus aureus assessed as reduction in microbial growth incubated for 24 hrs by microdilution method
Escherichia coli = experiment: Antibacterial activity against Escherichia coli assessed as reduction in microbial growth incubated for 24 hrs by microdilution method
Candida albicans = experiment: Antifungal activity against Candida albicans assessed as reduction in fungal growth incubated for 24 hrs by microdilution method

SMILES | MIC (Staphylococcus aureus) [µM] | MIC (Escherichia coli) [µM] | MIC (Candida albicans) [µM]
C=C(CO)[C@H]1Cc2c(ccc3c(=O)c4c(oc23)COc2cc(OC)c(OC)cc2-4)O1 | 612 | > 1000 | > 1000
CC(C)=CCC[C@]1(C)C=Cc2c(ccc3c2O[C@H](c2ccc(O)c(O)c2)[C@@H](O)C3=O)O1 | 36.9 | > 1000 | 74.1 (≈ 31.3 µg/mL)
COc1ccc(C2COc3c(ccc4c3C=CC(C)(CCC=C(C)C)O4)C2)c(O)c1O (configuration not stated) | 36.9 | 296 | 36.9 (≈ 15.6 µg/mL)
CC(C)=CCC/C(C)=C/Cc1c(O)ccc2c(=O)c(O)c(-c3ccc(O)c(O)c3)oc12 | > 1000 | > 1000 | > 1000
COc1ccc([C@@H]2COc3c(ccc(O)c3C/C=C(\C)CCC=C(C)C)C2)c(O)c1O | 36.7 | 294 | 73.7 (≈ 31.3 µg/mL)
CC(C)=CCC/C(C)=C/Cc1cc([C@H]2Oc3cc(O)ccc3C(=O)[C@@H]2O)cc(O)c1O | 36.7 | 294 | 73.7 (≈ 31.3 µg/mL)
CC(=O)O[C@H]1CC[C@]2(C)[C@H]3CC=C4[C@@H]5CC(C)(C)CC[C@]5(C(=O)O)CC[C@@]4(C)[C@]3(C)CC[C@H]2C1(C)C [ACETYL OLEANOLIC ACID] | 251 | > 1000 | 251 (≈ 125 µg/mL)
C=C(CO)[C@H]1Cc2c(ccc3c2O[C@@H]2COc4cc(OC)c(OC)cc4[C@]2(O)C3=O)O1 [DABINOL] | 293 | > 1000 | 147 (≈ 62.5 µg/mL)
O=C(/C=C/c1ccc(O)cc1)c1ccc(O)cc1O [ISOLIQUIRITIGENIN] | 488 | > 1000 | > 1000
CC(C)=CCCC1(C)C=Cc2c(ccc(C(=O)/C=C/c3ccc(O)cc3)c2O)O1 (configuration not stated) [LESPEOL] | 40 | 64 | 40 (≈ 15.6 µg/mL)

Stronger by MIC (Staphylococcus aureus), values ahead:

MIC (Staphylococcus aureus) [µM] | MIC (Escherichia coli) [µM] | MIC (Candida albicans) [µM] | SMILES
9.2 | 296 | 74.1 (≈ 31.3 µg/mL) | CC(C)=CCC[C@]1(C)C=Cc2cc([C@H]3Oc4cc(O)ccc4C(=O)[C@@H]3O)cc(O)c2O1
18.4 | > 1000 | 73.7 (≈ 31.3 µg/mL) | C=C[C@@](C)(CCC=C(C)C)c1cc([C@@H]2COc3cc(O)ccc3C2)c(O)c(O)c1OC
14.2 | > 1000 | 56.9 (≈ 15.6 µg/mL) | O=C(CC(O)c1ccc(O)cc1)c1ccc(O)cc1O (configuration not stated)
0.5 | 0.5 | 0.5 (≈ 0.275 µg/mL) | CCCCCCCCN=c1ccn(CCCCCCCCCCn2ccc(=NCCCCCCCC)cc2)cc1 [OCTENIDINE]
